Data reported in patent US9297012B2, “Methods and compositions for inducing deregulation of EPHA7 and ERK phosphorylation in human acute leukemias” (The Ohio State University Research Foundation, priority 2007, dated 2016).

What was measured:
Type in all cases: cell-based, human
RS4;11 cells [1] = experiment: FACS analysis (subG1), RS4;11; details: 1 μM
Protocol: (§1) At each time point, the cells were subjected to MTT assay (left), Caspase 3 activity assay (middle) and FACS analysis (right). The results of MTT and Caspase 3 activity assays are calculated as a ratio against the value for DMSO-treated cells. Vertical bar in each column indicates standard deviation determined by triplicate assays.
(§2) To determine the cause for the reduction in cell numbers, the 5-ITU-treated cells were subjected to assays determining apoptotic cell death (caspase 3 activity assay and FACS analysis).
(§3) Methods including Recombinant protein expression in K562 and in KG1 cells, RNA interference, Western blot analysis, and MTT assay, Caspase 3 Activity assay and FACS analysis are available in online Supporting Information.

RS4;11 cells [2] = experiment: MTT assay, RS4;11; details: RS4;11, t(4;11); 1 μM; 24, 48 and 72 hr; ratio vs DMSO
Protocol: as §1, §3

RS4;11 cells [3] = experiment: Caspase 3 activity assay, RS4;11; details: 1 μM, 24 hr, ratio vs DMSO
Protocol: as §1, §2, §3

697 cells = experiment: MTT assay, 697; details: 697 control cells lacking ALL1 abnormality; 1 μM; 24, 48 and 72 hr
Protocol: as §1, §3

SEMK2 cells [4] = experiment: Caspase 3 activity assay, SEMK2; details: 1 μM, 24 hr, ratio vs DMSO
Protocol: as §1, §2, §3

SEMK2 cells [5] = experiment: FACS analysis (subG1), SEMK2; details: 1 μM
Protocol: as §1, §2, §3

380 cells = experiment: MTT assay, 380; details: 380 control cells lacking ALL1 abnormality; 1 μM; 24, 48 and 72 hr
Protocol: as §1, §3

SEMK2 cells [6] = experiment: MTT assay, SEMK2; details: SEMK2, t(4;11); 1 μM; 24, 48 and 72 hr; ratio vs DMSO
Protocol: as §1, §3

For `Nc1ncnc2c1c(I)cn2[C@@H]1O[C@H](CO)[C@@H](O)[C@H]1O` [5-ITU, 5-iodotubercidin], the “cells at the subG1 phase (FACS)” value (RS4;11 cells [1]) was “high proportion”, the “cell number (MTT assay)” value (RS4;11 cells [2]) was “reduction in numbers” and the “caspase 3 activity” value (RS4;11 cells [3]) was “Increased caspase 3 activity”. The “cell number (MTT assay)” value (697 cells) was “no diminution in the number”, the “caspase 3 activity” value (SEMK2 cells [4]) was “Increased caspase 3 activity” and the “cells at the subG1 phase (FACS)” value (SEMK2 cells [5]) was “high proportion”. The “cell number (MTT assay)” value (380 cells) was “no diminution in the number” and the “cell number (MTT assay)” value (SEMK2 cells [6]) was “reduction in numbers”.
